The target in this experiment is T1, h FPR2 (Homo sapiens, UniProt P25090).
T1 construct: expressed in transfected cells
T1 sequence (P25090 1-351): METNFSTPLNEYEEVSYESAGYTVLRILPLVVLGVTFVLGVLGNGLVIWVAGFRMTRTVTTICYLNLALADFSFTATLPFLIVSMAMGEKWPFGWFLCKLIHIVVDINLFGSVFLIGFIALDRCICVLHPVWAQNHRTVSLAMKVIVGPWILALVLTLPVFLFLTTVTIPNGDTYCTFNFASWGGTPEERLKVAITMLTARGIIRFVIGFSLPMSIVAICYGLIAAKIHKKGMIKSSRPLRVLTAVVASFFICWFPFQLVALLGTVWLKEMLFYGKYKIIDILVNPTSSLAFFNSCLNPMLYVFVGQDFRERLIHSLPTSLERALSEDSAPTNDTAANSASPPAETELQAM
Nature of the experiment: Agonistic activity in hFPR2-Aq-CHO cells (FLIPR Calcium 5 fluorescence assay). The class given is cell-based. To be noted: 11 point half log dilution, final assay concentration from 10µM. The procedure, abridged:
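hFPR2-Aq-CHO cells were loaded with Calcium 5 dye for 30 min at 37 °C and equilibrated 10 min at room temperature. Compound (11 points, 10 µM to 100 pM final) was added in HBSS/HEPES/probenecid buffer pH 7.4. Fluorescence rise over basal across 5 min, relative to no-compound wells, gave EC50.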
Turning to `COc1ccc([C@@H]2CN(Cc3cc(C(F)(F)F)on3)CC[C@H]2NC(=O)Nc2ccc(Cl)cc2)nc1` (single isomer, unassigned) [Ex-38, trans-1-(4-chlorophenyl)-3-[3-(5-methoxypyridin-2-yl)-1-{[5-(trifluoromethyl)-1,2-oxazol-3-yl]methyl}piperidin-4-yl]urea], the EC50 amounted to 54 nM.

On to `COc1ccc([C@@H]2CNCC[C@H]2NC(=O)Nc2ccc(Cl)cc2)nc1` (single isomer, unassigned) [Ex-168, trans-1-(4-Chlorophenyl)-3-[3-(5-methoxy-pyridin-2-yl)-piperidin-4-yl]-urea], for which the EC50 was found to be 0.9 nM.

Take `COc1ccc([C@@H]2CN(c3ccncn3)CC[C@H]2NC(=O)Nc2cc(C)ns2)nc1` (relative stereo) [Ex-8, trans-1-(5-methoxy-1'-pyrimidin-4-yl-1',2',3',4',5',6'-hexahydro-[2,3']bipyridinyl-4'-yl)-3-(3-methyl-isothiazol-5-yl)-urea]: the EC50 is 1 nM.

`COCCCN1CC[C@@H](NC(=O)Nc2ccc(Cl)cc2)[C@H](c2ccc(OC)cn2)C1` (single isomer, unassigned) [Ex-192, trans-1-(4-chlorophenyl)-3-[1-(3-methoxypropyl)-3-(5-methoxypyridin-2-yl)piperidin-4-yl]urea]: the EC50 came to 58 nM.

`COc1ccc([C@H]2CN(CC3(C(N)=O)CC3)CC[C@@H]2NC(=O)Nc2ccc(Cl)cc2)nc1` [Ex-143, trans-1-[[4-[[(4-Chlorophenyl)-carbamoyl]amino]-3-(5-methoxy-pyridin-2-yl)-piperidin-1-yl]-methyl]-cyclopropane-1-carboxyfic acid amide]: the EC50 came out at 0.12 nM.

For `O=C(Nc1ccc(Cl)cc1)NC1CC(=O)N(c2ccc(F)cc2)CC1c1ccc(Cl)cn1` (single isomer, unassigned) [Ex-15, 1-(4-chlorophenyl)-3-[5-(5-chloropyridin-2-yl)-1-(4-fluorophenyl)-2-oxopiperidin-4-yl]urea], the EC50 is 7 nM.

The term EC50 denotes the midpoint of the concentration-response curve.

For the origin of these results see patent publication EP3789378A1, “PIPERIDINES OR PIPERIDONES SUBSTITUTED WITH UREA AND HETEROARYL” (Grünenthal GmbH, priority 2019, dated 2021).
